# Test results taken from patent publication US20250332180A1, “CANNABINOIDS AND IL-15 ACTIVATE NK CELLS” (The Regents of the University of California, priority 2022, published 2025).
# What was measured:
# OSCCs = assay: Cell count of viable cells (Trypan Blue, light microscope); format: cell-based, human; details: WIN 55,212-2 10-100 μM, 24 hours
# Description: The number of viable cells was counted under light microscope using Trypan Blue staining. Compiled data from three independent experiments performed as shown.
# The number of viable cells was counted under light microscope using Trypan Blue staining (Sigma, MO, USA).
# MP2 tumor cells [1] = assay: Cell death assay (PI staining, flow cytometry); format: cell-based, human; details: 25-100 μM, 24-48 hours
# Protocol: PI staining was used to determine the cell death by flow cytometry. One of two representative experiments is shown in (FIG. 4A) and the compiled data of paired MP2 and PL-12 at the same concentration of WIN 55,212-2 treatment is shown in (FIG. 4B). […] Two experiments were compiled and the % cell death of various WIN 55-212,2 concentration (10, 25, 50 and 100 μM) was compared to the untreated control for both PL12 (FIG. 4C) and MP2 (FIG. 4D). […] Non-linear regression was used to fit the curve of the % cell death induced by WIN 55-212,2 in various concentrations (10, 25, 50 and 100 μM) for both PL12 and MP2 (FIG. 4E).
# PI staining was used to determine the cell death by flow cytometry. Compiled data from two experiments is shown.
# PL-12 tumor cells [2] = details: 48 h, 25-100 μM
# PL-12 tumor cells [3] = assay: Microscopy of morphology and viability; format: cell-based, human; details: different concentrations of WIN 55,212-2, 24 hours
# Protocol: (§1) MP2 and PL-12 tumor cells were treated with CDDP (50 μg/mL) and different concentrations of WIN 55,212-2 for 24 hours before the microscopic images were taken. Scale bar=50 μm.
# MP2 tumor cells [4] = assay: Microscopy of morphology and viability; format: cell-based, human; details: different concentrations of WIN 55,212-2, 24 hours
# Protocol: as §1
# PL-12 tumor cells [5] = assay: Cell death assay (PI staining, flow cytometry); format: cell-based, human; details: 25-100 μM, 24-48 hours
# OSCSCs = details: 24 hours, up to 50 μM
# NK cells = assay: NK cell cytotoxicity in humanized BLT mice (4-hr Chromium release assay); format: in vivo; details: hu-BLT mice, every 2 days for 3 weeks; WIN 55,212-2 2 mg/kg IP; IL-15 5 μg/mice IP; preliminary experiments
# Protocol: Humanized BLT mice (hu-BLT; human-bone marrow/liver/thymus) were fed with, AJ2 (5×10^9 CFU/mice, every 2 days, Oral administration), WIN 55,212-2 (2 mg/kg, every 2 days, IP) and/or IL-15 (5 μg/mice, every 2 days, IP). After 3 weeks of treatment, immune cells were collected from peripheral blood, bone marrow and spleen, and CD3+ T cells were isolated from splenocytes with EasySep™ Human CD3 positive selection kit II (StemCell Tech.). PBMCs (0.5×10^6 cells) obtained from the peripheral blood were treated with IL-2 (1000 U/ml) and/or anti-CD16 antibody (BioLegend) (3 μg/ml) for 3 days, after which the cells were counted and different numbers of E:T ratios were used for the assessment of cytotoxicity using 4-hr Chromium release assay (FIG. 1A and FIG. 1B). The percentage specific cytotoxicity was calculated using the following formula (% cytotoxicity=(Experimental cpm/spontaneous cpm)/(total cpm−spontaneous cpm)) and the lytic unit 30 (Lu30/10^6) was calculated by using the inverse of the number of effector cells needed to lyse 30% of tumor target cells×100. Killing per % NK cells was determined by dividing the total Lytic unit 30 by the percentage of NK cells in each sample (FIG. 1A and FIG. 1B). […]
# IFN-γ secretion = IFN-γ secretion of immune cells in humanized BLT mice (ELISA, ELISpot); format: in vivo; details: hu-BLT mice
# Protocol: Humanized BLT mice (hu-BLT; human-bone marrow/liver/thymus) were fed with, AJ2 (5×10^9 CFU/mice, every 2 days, Oral administration), WIN 55,212-2 (2 mg/kg, every 2 days, IP) and/or IL-15 (5 μg/mice, every 2 days, IP). After 3 weeks of treatment, immune cells were collected from peripheral blood, bone marrow and spleen, and CD3+ T cells were isolated from splenocytes with EasySep™ Human CD3 positive selection kit II (StemCell Tech.). PBMCs (0.5×10^6 cells) obtained from the peripheral blood were treated with IL-2 (1000 U/ml) and/or anti-CD16 antibody (BioLegend) (3 μg/ml) for 3 days, after which the cells were counted and different numbers of E:T ratios were used for the assessment of cytotoxicity using 4-hr Chromium release assay (FIG. 1A and FIG. 1B). The percentage specific cytotoxicity was calculated using the following formula (% cytotoxicity=(Experimental cpm/spontaneous cpm)/(total cpm−spontaneous cpm)) and the lytic unit 30 (Lu30/10^6) was calculated by using the inverse of the number of effector cells needed to lyse 30% of tumor target cells×100. Killing per % NK cells was determined by dividing the total Lytic unit 30 by the percentage of NK cells in each sample (FIG. 1A and FIG. 1B). PBMCs (0.5×10^6 cells) obtained from the blood were treated with IL-2 (1000 U/ml) and/or anti-CD16 antibody (BioLegend) (3 μg/ml) for 24 hours, after which the supernatants were collected to measure IFN-g secretion using ELISA (BioLegend, San Diego) (FIG. 1C). ELISpot was used to determine the IFN-γ spots in PBMC (FIG. 1D), bone marrow (FIG. 1E), spleen (FIG. 1F) and CD3+ T cells (FIG. 1G).
# Humanized BLT mice (hu-BLT; human-bone marrow/liver/thymus) were fed with, AJ2 (5×10^9 CFU/mice, every 2 days, Oral administration), WIN 55,212-2 (2 mg/kg, every 2 days, IP) and/or IL-15 (5 μg/mice, every 2 days, IP). After 3 weeks of treatment, immune cells were collected from peripheral blood, bone marrow and spleen, and CD3+ T cells were isolated from splenocytes with EasySep™ Human CD3 positive selection kit II (StemCell Tech.). PBMCs (0.5×10^6 cells) obtained from the peripheral blood were treated with IL-2 (1000 U/ml) and/or anti-CD16 antibody (BioLegend) (3 μg/ml) for 3 days, after which the cells were counted and different numbers of E:T ratios were used for the assessment of cytotoxicity using 4-hr Chromium release assay (FIG. 6A and FIG. 6B). The percentage specific cytotoxicity was calculated using the following formula (% cytotoxicity=(Experimental cpm/spontaneous cpm)/(total cpm−spontaneous cpm)) and the lytic unit 30 (Lu30/10^6) was calculated by using the inverse of the number of effector cells needed to lyse 30% of tumor target cells×100. Killing per % NK cells was determined by dividing the total Lytic unit 30 by the percentage of NK cells in each sample (FIG. 6A and FIG. 6B). PBMCs (0.5×10^6 cells) obtained from the blood were treated with IL-2 (1000 U/ml) and/or anti-CD16 antibody (BioLegend) (3 μg/ml) for 24 hours, after which the supernatants were collected to measure IFN-g secretion using ELISA (BioLegend, San Diego) (FIG. 6C). ELISpot was used to determine the IFN-γ spots in PBMC (FIG. 6D), bone marrow (FIG. 6E), spleen (FIG. 6F) and CD3+ T cells (FIG. 6G).
# MP2 tumor cells [6] = test system: MP2 tumor cells
# [7] = WIN 55,212-2 2 mg/kg IP every 2 days, 3 weeks
smiles,measurement,setting,value
"CS(=O)(=O)O.Cc1c(C(=O)c2cccc3ccccc23)c2cccc3c2n1[C@H](CN1CCOCC1)CO3 [WIN 55,212-2, (R)-(+)-[2,3-Dihydro-5-methyl-3-(4-morpholinylmethyl)pyrrolo[1,2,3-de]-1,4-benzoxazin-6-yl]-1-naphthalenylmethanone mesylate]",decrease in cell numbers,OSCCs,10-25%
same,percentages of dead cells (PI staining),MP2 tumor cells [1],approximately 30%
same,cell surface expression of CD44,PL-12 tumor cells [2],Decreased cell surface expression
same,cell surface expression of CD54,PL-12 tumor cells [2],decreased the expression
same,cell surface expression of MHC class I,PL-12 tumor cells [2],increased on PL-12 tumor cells
same,cell surface expression of PD-L1,PL-12 tumor cells [2],increased in PL-12
same,morphology and viability,PL-12 tumor cells [3],maintained their morphology and remained viable
same,morphology and viability,MP2 tumor cells [4],largely lost their shape and morphology
same,percentages of dead cells (PI staining),PL-12 tumor cells [5],up to 20%
same,cell surface expression of CD44,OSCSCs,decreased
same,cell surface expression of CD54,OSCSCs,decreased
same,cell surface expression of MHC class I,OSCSCs,remained unchanged
same,cell surface expression of PD-L1,OSCSCs,decreased
same,cytotoxic function of NK cells in PBMC,NK cells,increased the cytotoxic function of NK cells
same,IFN-γ immune-spots (ELISpot) in PBMCs,IFN-γ secretion; [7],augmented
same,IFN-γ immune-spots (ELISpot) in bone marrow,IFN-γ secretion; [7],augmented
same,IFN-γ immune-spots (ELISpot) in purified CD3+ T cells,IFN-γ secretion; [7],augmented
same,IFN-γ immune-spots (ELISpot) in spleen,IFN-γ secretion; [7],augmented
same,"IFN-γ secretion (ELISA, PBMCs)","IFN-γ secretion; every 2 days for 3 weeks, WIN 55,212-2 2 mg/kg IP, IL-15 5 μg/mice IP",augmented IFN-γ secretion
same,cell surface expression of CD44,"MP2 tumor cells [6]; 48 h, 25-100 μM",Decreased cell surface expression
same,cell surface expression of CD54,"MP2 tumor cells [6]; 48 h, 25-100 μM",decreased the expression
same,cell surface expression of MHC class I,"MP2 tumor cells [6]; 48 h, 25-100 μM",decreased on MP2 tumor cells
same,cell surface expression of PD-L1,"MP2 tumor cells [6]; 48 h, 25-100 μM",decreased in MP2 tumor cells
same,"extent of decrease in all surface receptor expressions, MP2 compared with PL-12","MP2 tumor cells [6]; after WIN 55,212-2 treatments",significantly greater
